Data published in patent publication US8822448B2, “Pyrazoloquinoline compound” (Astellas Pharma Inc., priority 2010, dated 2014).

Columns and labels:
[1] = system: urethra relaxation response; experiment: Simultaneous measurement model for rat bladder contraction/urethra relaxation responses; format: in vivo; conditions: female SD rat, increase relative to the solvent administration group, read-out: Ratio with increased urethra relaxation time during voiding (vs vehicle) (%)
Protocol: Simultaneous measurement of the bladder contraction and urethra relaxation responses using a rat was carried out with a partial modification of a method in Wibberley et al. (Wibberley, A., et al., Br. J. Pharmacol., 136: pp. 399-414 (2002)). That is, a female Sprague-Dawley (SD) rat (Charles River Laboratories Japan, Inc.) was anesthetized with urethane, and the bladder was exposed by a midline incision in the lower abdomen. A double lumen cannula (a cannula having a dual structure by PE190 and PE50) from the bladder apex was inserted into the bladder, and the bladder apex and the cannula were fixed by sutures at a point where the tip reached the proximal urethra. While infusing physiological saline into the urethra through the outer cannula, the urethral inner pressure was measured by a pressure transducer through the inner cannula with a saline solution infused into the urethra through the outer cannula. On the other hand, a single cannula (PESO) was inserted into the bladder from the bladder apex and placed therein. The inner pressure of the bladder was measured through this cannula. After a postoperative stabilization period had passed, physiological saline was infused into the bladder through the cannula of the bladder apex to cause a bladder contraction reaction, and thus cause a urethra relaxation response accompanying the bladder contraction reflex. The test substance was administered intravenously or intraduodenally.

[2] = target: PDE9 (Homo sapiens (Human), UniProt O76083); experiment: PDE9-inhibiting activity (SPA enzyme assay); format: biochemical; conditions: IC50 values; cGMP 1 μM substrate, 30° C.; read-out: PDE9 inhibition
Sequence of PDE9 (O76083 whole entry): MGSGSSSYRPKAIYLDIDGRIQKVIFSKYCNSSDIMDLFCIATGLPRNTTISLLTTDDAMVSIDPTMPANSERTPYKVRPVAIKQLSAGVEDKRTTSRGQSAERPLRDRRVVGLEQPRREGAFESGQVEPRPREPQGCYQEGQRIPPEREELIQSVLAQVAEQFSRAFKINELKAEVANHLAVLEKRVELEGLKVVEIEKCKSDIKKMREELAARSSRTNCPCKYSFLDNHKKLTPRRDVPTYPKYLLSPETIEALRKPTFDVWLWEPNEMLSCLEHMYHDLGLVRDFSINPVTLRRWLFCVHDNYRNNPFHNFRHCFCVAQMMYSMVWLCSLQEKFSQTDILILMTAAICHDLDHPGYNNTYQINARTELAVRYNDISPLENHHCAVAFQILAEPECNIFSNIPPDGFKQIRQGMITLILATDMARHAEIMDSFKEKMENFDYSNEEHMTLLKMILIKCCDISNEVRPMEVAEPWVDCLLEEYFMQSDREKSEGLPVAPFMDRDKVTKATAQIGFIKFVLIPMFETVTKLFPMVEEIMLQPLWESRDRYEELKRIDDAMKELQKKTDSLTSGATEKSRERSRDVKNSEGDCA
Protocol: The PDE9-inhibiting activity was measured by the following method. That is, to a buffer solution containing tris(hydroxymethyl)aminomethane-hydrochloric acid (40 mM, pH 8.0), magnesium chloride (5 mM), and 2-mercaptoethanol (4 mM) were added cGMP (1 μM) and ^3H-cGMP (0.33 μCi/ml) to give a substrate buffer solution. A test substance solution and an enzyme solution which had been adjusted to an optimal concentration were added thereto to perform a reaction at 30° C. The enzyme reaction was stopped by the addition of Scintillation Proximity Assay (SPA) Beads (Perkin Elmer, USA) containing 5 mM 3-isobutyl-1-methylxanthine (IBMX). For the enzyme activity, the amount of 5′-GMP, which is a reaction degradation product bound to SPA beads, was measured with a TopCount microplate reader (Hewlett Packard, USA). The inhibitory rate was calculated by taking the radioactivity of the control containing no test substance as (A), taking the radioactivity of the blank containing no enzyme as (B), and taking the radioactivity of the test substance as (C), and using the following equation.

| Structure (SMILES) | IC50 [2] | melting point | response vs control in vivo at 1 mg/kg [1] |
| --- | --- | --- | --- |
| Cc1cc2[nH]c(=O)c3cnn(C4CCOCC4)c3c2cc1C(=O)NCC1(N2CCOCC2)CCCCC1.Cl [Example 23] | 0.4 nM | 281 to 283 °C | 168% |
| Cc1cc2[nH]c(=O)c3cnn(C4CCOCC4)c3c2cc1C(=O)N1CCC(OCC2CC2)CC1 [Example 41] | 5.7 nM | 206 to 208 °C | 159% |
| CCOCC1CCN(C(=O)c2cc3c(cc2C)[nH]c(=O)c2cnn(C4CCOCC4)c23)CC1 [Example 56] | 4.4 nM | – | 158% |
| Cc1cc2[nH]c(=O)c3cnn(C4CCOCC4)c3c2cc1C(=O)N1CCC(OC[C@H](C)F)CC1 [Example 95] | 14 nM | 209 to 210 °C | 166% |
| CCOC1CCN(C(=O)c2cc3c(cc2C)[nH]c(=O)c2cnn(C4CCOCC4)c23)CC1 [Example 40] | 8.9 nM | – | 138% |
| Cc1cc2[nH]c(=O)c3cnn(C4CCOCC4)c3c2cc1C(=O)N1CCC(Oc2ccccn2)CC1 [Example 22] | 2.2 nM | 250 to 253 °C | 142% |

Continued, in another order:

| IC50 [2] | melting point | Structure (SMILES) | response vs control in vivo at 1 mg/kg [1] |
| --- | --- | --- | --- |
| 5.8 nM | – | CCOCCCCN1CCN(C(=O)c2cc3c(cc2C)[nH]c(=O)c2cnn(C4CCOCC4)c23)C[C@@H]1C [Example 109] | 158% |
| 5.2 nM | 174 to 176 °C | Cc1cc2[nH]c(=O)c3cnn(C4CCOCC4)c3c2cc1C(=O)N1CCN(CCC(F)(F)F)CC1.Cl [Example 128] | 136% |
| 23 nM | 161 to 163 °C | COCCCCN1CCN(C(=O)c2cc3c(cc2C)[nH]c(=O)c2cnn(C4CCC4)c23)CC1 [Example 79] | 139% |
| 9.3 nM | 240 to 242 °C | COCCCCN1CCN(C(=O)c2cc3c(cc2C)[nH]c(=O)c2cnn(C4CCOCC4)c23)CC1.Cl [Example 84] | 154% |
| 3.9 nM | 216 to 218 °C | CCCOC1CCN(C(=O)c2cc3c(cc2C)[nH]c(=O)c2cnn(C4CCOCC4)c23)CC1 [Example 53] | 145% |
| 15 nM | – | Cc1cc2[nH]c(=O)c3cnn(C4CCC4)c3c2cc1C(=O)N1CCN(CC2CCOCC2)CC1 [Example 55] | 166% |
